Data set [1] concerns bovine serum.
Method: To recover such a compound in a free state from plasma, it is required to add a large amount of a water-miscible organic solvent (methanol, ethanol, acetone, acetonitrile, etc.) to the plasma, acidify the mixture (pH 3.0 or below) and then allow it to stand at room temperature for about 1 week. […] Ascochlorin, Compound-6 or Compound-14 is dissolved in a small amount of an organic solvent and added to serum.
At definite points, the serum was sampled and divided into 2 portions. Ten times as much acetonitrile was added to one of these portions and the mixture was centrifuged. Then the free compound in the serum was determined. To the other portion, 10 times as much acetonitrile containing 1% of acetic acid was added. After allowing to stand at room temperature for 1 week, the mixture was centrifuged and the free compound was determined (FIG. 10).
Data set [2] concerns rats given streptozotocin. The data set is described as follows: Relief of onset of streptozotocin-induced diabetes. It is filed as in vivo, rat. The following applies: male Wistar rats, streptozotocin 45 mg/kg i.v.; 20 mg/kg/day oral, 10 days; Mean ± SE. As for the experimental part: Eighteen male Wistar rats weighing about 200 g were divided into 3 groups at random. To the animals of 2 groups, 45 mg/kg of streptozotocin was intravenously administered. One of these groups was regarded as a control group, while the other was regarded as the Compound-6 administration group. To the remaining 1 group which was regarded as the normal control group, a 1/10 M citrate buffer (pH 3.5) […] was intravenously administered. Immediately after the administration of streptozotocin, a suspension of Compound-6 in acacia was orally administered once a day continuously for 10 days in a dose of 20 mg/kg/day. To other groups, an acacia solution alone was administered. After fasting for 6 hours after the final administration, blood was collected from the heart of each animal and the blood glucose level and the blood insulin level were measured. As the data given in Table 7a show, the oral administration of Compound-6 inhibited an increase in the blood glucose level and a decrease in the blood insulin level.
Eighteen male SD rats weighing about 250 g were divided into 3 groups at random. […] To the normal control group and the streptozotocin control group, the acacia solution alone was administered orally. After fasting for 6 hours after the final administration, blood was collected from the heart of each animal and the blood glucose level and the blood insulin level were measured. As the data given in Table 7b show, the oral administration of Compound-5 inhibited an increase in the blood glucose level and a decrease in the blood insulin level.

Data set [3] relates to Japanese quails. The data set is described as follows: Inhibition of arteriosclerosis in Japanese quails fed 1% cholesterol feed. Details: key to Atheroma formation in arcuate aorta, grade of individual birds: 0: no atheroma.; I: coated with atheroma at a ratio of 1 to 10% of the total area.; II: coated with atheroma at a ratio of 11 to 40% of the total area.; III: coated with atheroma at a ratio of 41 to 70% of the total area.; IV: coated with atheroma at a ratio of 71 to 100% of the total area. Format: in vivo, Japanese quail. The settings on record: 9 months; for Atheroma formation in arcuate aorta, grade of individual birds: individuals I-VIII; for decrease of serum cholesterol level / decrease of serum neutral fat level: vs high cholesterol feed control; for Serum neutral fat / Serum total cholesterol: Mean ± SE. The procedure:
When fed with a high fat diet, birds also show the onset of arteriosclerosis within a short period of time. Then 32 adult Japanese quails aged about 30 days were divided into 4 groups at random. […] The feed was prepared by adding 1% of cholesterol to a powdery protein-rich standard fed for chick and molding the mixture into pellets. Compound-6 was added in an amount of 0.16% or 0.0025% to the powdery feed and then the mixture was molded into pellets. The experiment was carried out for 9 months. During this period, the birds were allowed to take the feed and drinking water ad libitum. The feed employed in this experiment contained less fat, compared with the feed employed in the experiments with white rabbits, and was free from bile acid promoting the absorption of cholesterol from the digestive tract.
After 9 months, blood was collected and the serum total cholesterol level and the neutral fat level were measured. […] Each bird was dissected and the aorta was taken out. Then the severity was scored in 5 grades based on the ratio of atheroma to the total endosporium area and thickening of the arterial wall.

The test system of data set [4] is rats with adjuvant arthritis. Description: Therapeutic effect on rat adjuvant arthritis. Format: in vivo. The following applies: for Inflammation score (5 grades, 1 normal to 5 disabled by swelling in both hind legs): 7 times, day 7. As for the experimental part: Rats with arthritis employed in Experiment 1 were individuals which suffered from serious arthritis caused by the injection of an adjuvant 45 days ago and thus crawled on forelegs since they could not bend hind legs. Drug effects were evaluated by observing walking, observation with the naked eye of the severity of inflammation in hind legs and the volume of swelling in legs. To 19 SD male rats (weighing about 300 g), Freund's […] adjuvant containing dead tubercle bacillus Aoyama B strain was subcutaneously injected into the tail root to induce arthritis in hind legs. Compound-6 was suspended in a tragacanth gum solution and orally administered at a ratio of 0.5 ml/100 g body weight. Compound-6 was administered to 3 groups including the high-dose model (HM; 50 mg/kg), the medium-dose model (MM; 25 mg/kg) and the low-dose model (LM; 10 mg/kg). Administration was made once a day in morning continuously 7 times. During this period, the hind leg volume was measured at the initiation of the experiment and 2, 4 and 7 days thereafter. The volume change was calculated by referring the volume at the initiation of the experiment as to 100%. On the 7th day, the inflammation conditions in hind legs were evaluated in 5 grades with the naked eye.
Immediately after administration, the three Compound-6 groups were combined and divided again depending on the occurrence of arthritis (i.e., positive and negative groups). Then the data were compared with the data of the control group.

In data set [5] the test system is male Wistar rats. The data set is described as follows: Sterol balance and bile acid excretion in rats. It is filed as in vivo, rat. The settings on record: 10 mg/kg oral once a day. The procedure:
Feed-origin cholesterol and neutral sterol and acidic sterol in the feces of rats, to which the compounds of the present invention had been administered, were determined to monitor sterol balance and changes in the bile acid composition in feces. […] Further, the bile was sampled with the passage of time from rats having been subjected to cholangiostomy and bile acids thereof were determined. […] Male Wistar rats weighting about 250 g were divided into groups each having 6 to 8 animals. […] […] The feces were collected on the days 6 and 10. Then sterols were extracted therefrom in a conventional manner, acidic sterols and neutral sterols were determined. On the other hand, cholesterol in the feed was also determined so as to calculate the amount of feed-origin sterol.

Where [6] appears, read: three dose groups combined, total 14.

“And” between values parts separate entries of the source, which are not always exact repeats. Equal values may be shown once.

Take “3-[5-[l(R),2(S),6(S)-trimethyl-3-oxocylohexyl]-3-methyl-2,4-pentadienyl]-2,4-dihydroxy-5-chloro-6-methylbenzaldehyde [Compound-1]”: the “free compound in serum” value in data set [1] is reported as “scarcely detected”.
As to `COc1c(Cl)c(C)c(C=O)c(O)c1C/C=C(C)/C=C/[C@@]1(C)[C@H](C)CCC(=O)[C@@H]1C` [Compound-6, 4-O-methylASC], in data set [2], the Blood glucose worked out at 277.2 ± 52.44 mg/dL and the “Serum IRI” value stood at 12.3 ± 1.65 mU/ml. In data set [3] (High-dose group (0.16%)), the occurrence of atheroma result is recorded as “no atheroma” and the “Atheroma formation in arcuate aorta, grade of individual birds” value was found to be 0. Moreover, the “Atheroma severity score, Average” value in data set [3] (High-dose group (0.16%), n = 8) amounted to 0.00 ± 0.00. In data set [3] (High-dose group), the “decrease of serum cholesterol level” value was 40% and the “decrease of serum neutral fat level” value is listed as 40%. In data set [3] (High-dose, 0.16% in feed), the “Serum neutral fat, change vs control” value is given as −40.0%; the “Serum total cholesterol, change vs control” value is given as −40.4%; the Serum neutral fat came out at 392.6 ± 46.5 mg/dL; the Serum total cholesterol is 1200 ± 136 mg/dL. In data set [3] (Low-dose group (0.0025%)), the “fraction of the birds with atheroma” value is “½”; the “Atheroma formation in arcuate aorta, grade of individual birds” value was 0 (4×) and I (coated with atheroma at a ratio of 1 to 10% of the total area.) (4×). Moreover, in data set [3] (Low-dose group), the “decrease of serum cholesterol level” value was 25.5% and the “decrease of serum neutral fat level” value was 21.6%. Further, in data set [3] (Low-dose, 0.0025% in feed), the “Serum neutral fat, change vs control” value was −21.6%; the “Serum total cholesterol, change vs control” value is reported as −25.5%; the Serum neutral fat was 513.1 ± 39.2 mg/dL; the Serum total cholesterol was determined as 1499 ± 120 mg/dL. In data set [4] (HM group, 50 mg/kg oral once a day), the “Inflammation score (5 grades, 1 normal to 5 disabled by swelling in both hind legs)” value (from here on “Inflammation score”) is listed as 2.2. In data set [4] (LM group, 10 mg/kg oral once a day), the “Inflammation score” value is 3.2. Moreover, the “Inflammation score” value in data set [4] (MM group, 25 mg/kg oral once a day) came to 2.8. The “walking of rats disabled by swelling in joint” value in data set [4] (after 1 week of oral administration) is on record as “could walk again”. In data set [4] (setting [6]), the “Arthritis (+), number of rats” value was 7 and the “Arthritis (−), number of rats” value came out at 7. Also, in data set [5] (Standard feed), the Serum total cholesterol stood at 65.0 ± 2.98 mg/dL, the “Sterol Excretion” value was found to be 10.81 mg/200 g wt and the Sterol balance is -2.26 mg. In addition, in data set [5] (feed containing cholesterol), the Serum total cholesterol came out at 77.0 ± 2.19 mg/dL, the “Sterol Excretion” value stood at 275.52 mg/200 g wt and the Sterol balance entry is listed as “+25.93 mg”.

These data come from patent US6605639B1, “Ligands of nuclear receptor” (Nuclear Receptor Research, Ltd., priority 1998, dated 2003).
